Data as given in article PMC10504751, “Chalcone/1,3,4-Oxadiazole/Benzimidazole hybrids as novel anti-proliferative agents inducing apoptosis and inhibiting EGFR & BRAFV^600E” (BMC Chemistry, 2023).

What was measured:
Assay in all cases: NCI one-dose SRB anti-proliferative screen
Format in all cases: cell-based
MDA-MB-468 = details: Homo sapiens; MDA-MB-468 (Breast Cancer), NCI one dose 10 µM; read-out: Cell growth inhibition %
Method in brief: (§1)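 Using a fixed 10 µM dose, anti-proliferative activity is measured through sulforhodamine B binding, read colorimetrically, in one of sixty human tumour lines.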

UACC-257 = details: Homo sapiens; UACC-257 (Melanoma), NCI one dose 10 µM; read-out: Cell growth inhibition %
Method in brief: as §1

OVCAR-4 = details: Homo sapiens; OVCAR-4 (Ovarian Cancer), NCI one dose 10 µM; read-out: Cell growth inhibition %
Method in brief: as §1

ACHN = details: Homo sapiens; ACHN (Renal Cancer), NCI one dose 10 µM; read-out: Cell growth inhibition %
Method in brief: as §1

HCT-15 = details: Homo sapiens; HCT-15 (Colon Cancer), NCI one dose 10 µM; read-out: Cell growth inhibition %
Method in brief: as §1

U251 = details: Homo sapiens, U-251; U251 (CNS Cancer), NCI one dose 10 µM; read-out: Cell growth inhibition %
Method in brief: as §1

SW-620 = details: Homo sapiens; SW-620 (Colon Cancer), NCI one dose 10 µM; read-out: Cell growth inhibition %
Method in brief: as §1

A498 = details: Homo sapiens; A498 (Renal Cancer), NCI one dose 10 µM; read-out: Cell growth inhibition %
Method in brief: as §1

KM12 = details: Homo sapiens; KM12 (Colon Cancer), NCI one dose 10 µM; read-out: Cell growth inhibition %
Method in brief: as §1

NCI-H226 = details: Homo sapiens; NCI-H226 (Non-Small Cell Lung Cancer), NCI one dose 10 µM; read-out: Cell growth inhibition %
Method in brief: as §1

OVCAR-3 = details: Homo sapiens; OVCAR-3 (Ovarian Cancer), NCI one dose 10 µM; read-out: Cell growth inhibition %
Method in brief: as §1

IGROV1 = details: Homo sapiens, IGROV-1; IGROV1 (Ovarian Cancer), NCI one dose 10 µM; read-out: Cell growth inhibition %
Method in brief: as §1

786-0 = details: Homo sapiens; 786-0 (Renal Cancer), NCI one dose 10 µM; read-out: Cell growth inhibition %
Method in brief: as §1

MCF7 = details: Homo sapiens; MCF7 (Breast Cancer), NCI one dose 10 µM; read-out: Cell growth inhibition %
Method in brief: as §1

UACC-62 = details: Homo sapiens; UACC-62 (Melanoma), NCI one dose 10 µM; read-out: Cell growth inhibition %
Method in brief: as §1

TK-10 = details: Homo sapiens; TK-10 (Renal Cancer), NCI one dose 10 µM; read-out: Cell growth inhibition %
Method in brief: as §1

HCC-2998 = details: Homo sapiens; HCC-2998 (Colon Cancer), NCI one dose 10 µM; read-out: Cell growth inhibition %
Method in brief: as §1

OVCAR-5 = details: Homo sapiens; OVCAR-5 (Ovarian Cancer), NCI one dose 10 µM; read-out: Cell growth inhibition %
Method in brief: as §1

SF-539 = details: Homo sapiens; SF-539 (CNS Cancer), NCI one dose 10 µM; read-out: Cell growth inhibition %
Method in brief: as §1

EKVX = details: Homo sapiens; EKVX (Non-Small Cell Lung Cancer), NCI one dose 10 µM; read-out: Cell growth inhibition %
Method in brief: as §1

NCI-H322M = details: Homo sapiens; NCI-H322M (Non-Small Cell Lung Cancer), NCI one dose 10 µM; read-out: Cell growth inhibition %
Method in brief: as §1

NCI-H522 = details: Homo sapiens; NCI-H522 (Non-Small Cell Lung Cancer), NCI one dose 10 µM; read-out: Cell growth inhibition %
Method in brief: as §1

HS 578T = details: Homo sapiens; HS 578T (Breast Cancer), NCI one dose 10 µM; read-out: Cell growth inhibition %
Method in brief: as §1

CCRF-CEM = details: Homo sapiens; CCRF-CEM (Leukemia), NCI one dose 10 µM; read-out: Cell growth inhibition %
Method in brief: as §1

NCI-H23 = details: Homo sapiens; NCI-H23 (Non-Small Cell Lung Cancer), NCI one dose 10 µM; read-out: Cell growth inhibition %
Method in brief: as §1

SF-268 = details: Homo sapiens; SF-268 (CNS Cancer), NCI one dose 10 µM; read-out: Cell growth inhibition %
Method in brief: as §1

LOX IMVI = details: Homo sapiens, LOX IMIV (Melanoma), NCI one dose 10 µM, read-out: Cell growth inhibition %
Method in brief: as §1

OVCAR-8 = details: Homo sapiens; OVCAR-8 (Ovarian Cancer), NCI one dose 10 µM; read-out: Cell growth inhibition %
Method in brief: as §1

A549/ATCC = details: Homo sapiens; A549/ATCC (Non-Small Cell Lung Cancer), NCI one dose 10 µM; read-out: Cell growth inhibition %
Method in brief: as §1

DU-145 = details: Homo sapiens; DU-145 (Prostate Cancer), NCI one dose 10 µM; read-out: Cell growth inhibition %
Method in brief: as §1

HT29 = details: Homo sapiens, HT-29; HT29 (Colon Cancer), NCI one dose 10 µM; read-out: Cell growth inhibition %
Method in brief: as §1

## COc1ccc(/C=C/C(=O)c2ccc(NC(=O)CSc3nnc(-c4ccc5[nH]c(-c6ccc(OC)c(OC)c6)nc5c4)o3)cc2)cc1 [Compound 7r, 2-{5-[2-(3,4-Dimethoxyphenyl)-1 H-benzo[d]imidazol-5-yl]-1,3,4-oxadiazol-2-ylthio}-N-{4-[(E)-3-(4-methoxyphenyl)acryloyl]phenyl}acetamide]
MDA-MB-468
  inhibition at 10 µM: 0%
UACC-257
  inhibition at 10 µM: 0%
OVCAR-4
  inhibition at 10 µM: 0%
ACHN
  inhibition at 10 µM: 2.15%
HCT-15
  inhibition at 10 µM: 2.32%
U251
  inhibition at 10 µM: 0%
SW-620
  inhibition at 10 µM: 0%
A498
  inhibition at 10 µM: 0%
KM12
  inhibition at 10 µM: 0%
NCI-H226
  inhibition at 10 µM: 2.08%
OVCAR-3
  inhibition at 10 µM: 0%
IGROV1
  inhibition at 10 µM: 2.07%
786-0
  inhibition at 10 µM: 0%
MCF7
  inhibition at 10 µM: 24.7%
UACC-62
  inhibition at 10 µM: 11%
TK-10
  inhibition at 10 µM: 0%
HCC-2998
  inhibition at 10 µM: 0%
OVCAR-5
  inhibition at 10 µM: 0%
SF-539
  inhibition at 10 µM: 7.36%
EKVX
  inhibition at 10 µM: 3.51%
NCI-H322M
  inhibition at 10 µM: 1.05%
NCI-H522
  inhibition at 10 µM: 14.3%
HS 578T
  inhibition at 10 µM: 13.2%
CCRF-CEM
  inhibition at 10 µM: 38.6%
NCI-H23
  inhibition at 10 µM: 5.15%
SF-268
  inhibition at 10 µM: 0%
LOX IMVI
  inhibition at 10 µM: 20.2%
OVCAR-8
  inhibition at 10 µM: 11.1%
A549/ATCC
  inhibition at 10 µM: 0%
DU-145
  inhibition at 10 µM: 0%
HT29
  inhibition at 10 µM: 0%

## COc1cc(-c2nc3cc(-c4nnc(SCC(=O)Nc5ccc(C(=O)/C=C/c6ccccc6)cc5)o4)ccc3[nH]2)cc(OC)c1OC [Compound 7u, 2-{5-[2-(3,4,5-Trimethoxyphenyl)-1 H-benzo[d]imidazol-5-yl]-1,3,4-oxadiazol-2-ylthio}-N-{4-[(E)-3-phenylacryloyl]phenyl}acetamide]
MDA-MB-468
  inhibition at 10 µM: 0%
UACC-257
  inhibition at 10 µM: 0%
OVCAR-4
  inhibition at 10 µM: 0%
ACHN
  inhibition at 10 µM: 1.08%
HCT-15
  inhibition at 10 µM: 12.3%
U251
  inhibition at 10 µM: 9.89%
SW-620
  inhibition at 10 µM: 0%
A498
  inhibition at 10 µM: 0%
KM12
  inhibition at 10 µM: 0.98%
NCI-H226
  inhibition at 10 µM: 10.4%
OVCAR-3
  inhibition at 10 µM: 0%
IGROV1
  inhibition at 10 µM: 29%
786-0
  inhibition at 10 µM: 0%
MCF7
  inhibition at 10 µM: 44.7%
UACC-62
  inhibition at 10 µM: 8.01%
TK-10
  inhibition at 10 µM: 0%
HCC-2998
  inhibition at 10 µM: 0%
OVCAR-5
  inhibition at 10 µM: 0%
SF-539
  inhibition at 10 µM: 13.3%
EKVX
  inhibition at 10 µM: 0%
NCI-H322M
  inhibition at 10 µM: 0%
NCI-H522
  inhibition at 10 µM: 3.99%
HS 578T
  inhibition at 10 µM: 9.37%
CCRF-CEM
  inhibition at 10 µM: 21.9%
NCI-H23
  inhibition at 10 µM: 3.04%
SF-268
  inhibition at 10 µM: 0%
LOX IMVI
  inhibition at 10 µM: 22%
OVCAR-8
  inhibition at 10 µM: 10.6%
A549/ATCC
  inhibition at 10 µM: 0.78%
DU-145
  inhibition at 10 µM: 0%
HT29
  inhibition at 10 µM: 0%

## O=C(CSc1nnc(-c2ccc3[nH]c(-c4ccc(Cl)cc4)nc3c2)o1)Nc1ccc(C(=O)/C=C/c2ccc(Cl)cc2)cc1 [Compound 7g, 2-{5-[2-(4-Chlorophenyl)-1 H-benzo[d]imidazol-5-yl]-1,3,4-oxadiazol-2-ylthio}-N-{4-[(E)-3-(4-chlorophenyl)acryloyl]phenyl}acetamide]
MDA-MB-468
  inhibition at 10 µM: 0%
UACC-257
  inhibition at 10 µM: 0%
OVCAR-4
  inhibition at 10 µM: 0%
ACHN
  inhibition at 10 µM: 1.98%
HCT-15
  inhibition at 10 µM: 10.2%
U251
  inhibition at 10 µM: 17.8%
SW-620
  inhibition at 10 µM: 0%
A498
  inhibition at 10 µM: 9.85%
KM12
  inhibition at 10 µM: 0.67%
NCI-H226
  inhibition at 10 µM: 14%
OVCAR-3
  inhibition at 10 µM: 0%
IGROV1
  inhibition at 10 µM: 14.4%
786-0
  inhibition at 10 µM: 7.38%
MCF7
  inhibition at 10 µM: 44.8%
UACC-62
  inhibition at 10 µM: 16.8%
TK-10
  inhibition at 10 µM: 0%
HCC-2998
  inhibition at 10 µM: 0%
OVCAR-5
  inhibition at 10 µM: 0%
SF-539
  inhibition at 10 µM: 15.7%
EKVX
  inhibition at 10 µM: 6.19%
NCI-H322M
  inhibition at 10 µM: 4.64%
NCI-H522
  inhibition at 10 µM: 11.6%
HS 578T
  inhibition at 10 µM: 11%
CCRF-CEM
  inhibition at 10 µM: 13.6%
NCI-H23
  inhibition at 10 µM: 0%
SF-268
  inhibition at 10 µM: 0.08%
LOX IMVI
  inhibition at 10 µM: 124%
OVCAR-8
  inhibition at 10 µM: 2.88%
A549/ATCC
  inhibition at 10 µM: 4.52%
DU-145
  inhibition at 10 µM: 0%
HT29
  inhibition at 10 µM: 0%
